Experimental data: paper PMC5951806, “Rapid labelling and covalent inhibition of intracellular native proteins using ligand-directed N-acyl-N-alkyl sulfonamide” (Nature Communications, 2018)

Experiments:
Assay in all cases: TMT LC-MSMS of 11-labelled proteins
Format in all cases: cell-based
[1] = molecular target: T1, citrate synthase, mitochondrial (CS) (Homo sapiens, UniProt O75390)
T1 sequence (O75390 28-466): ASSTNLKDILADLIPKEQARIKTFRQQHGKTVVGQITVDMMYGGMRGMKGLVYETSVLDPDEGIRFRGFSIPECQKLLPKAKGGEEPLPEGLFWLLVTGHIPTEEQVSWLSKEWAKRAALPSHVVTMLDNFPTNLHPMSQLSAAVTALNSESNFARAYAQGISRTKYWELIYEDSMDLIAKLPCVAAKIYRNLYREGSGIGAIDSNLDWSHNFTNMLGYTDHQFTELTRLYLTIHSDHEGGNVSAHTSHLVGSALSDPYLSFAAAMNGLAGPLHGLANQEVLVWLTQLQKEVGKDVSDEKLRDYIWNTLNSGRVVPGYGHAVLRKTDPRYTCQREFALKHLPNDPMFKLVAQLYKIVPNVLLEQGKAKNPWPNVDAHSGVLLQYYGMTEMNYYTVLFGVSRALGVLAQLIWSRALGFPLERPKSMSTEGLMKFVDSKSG

[2] = molecular target: Trifunctional enzyme subunit alpha, mitochondrial (HADHA) (Homo sapiens, UniProt P40939)
[3] = molecular target: L-lactate dehydrogenase B chain (LDHB) (Homo sapiens, UniProt P07195)
[4] = sheet Merged, SKBR3 cells, 11 0.5 µM 3 h vs DMSO
[5] = sheet Merged, SKBR3 cells, 11 0.5 µM 3 h vs with PU-H71 10 µM
[6] = sheet Exp1, SKBR3 cells, 11 0.5 µM 3 h vs DMSO
[7] = sheet Exp1, SKBR3 cells, 11 0.5 µM 3 h vs with PU-H71 10 µM

Chain of Trifunctional enzyme subunit alpha, mitochondrial (HADHA) (P40939 37-763): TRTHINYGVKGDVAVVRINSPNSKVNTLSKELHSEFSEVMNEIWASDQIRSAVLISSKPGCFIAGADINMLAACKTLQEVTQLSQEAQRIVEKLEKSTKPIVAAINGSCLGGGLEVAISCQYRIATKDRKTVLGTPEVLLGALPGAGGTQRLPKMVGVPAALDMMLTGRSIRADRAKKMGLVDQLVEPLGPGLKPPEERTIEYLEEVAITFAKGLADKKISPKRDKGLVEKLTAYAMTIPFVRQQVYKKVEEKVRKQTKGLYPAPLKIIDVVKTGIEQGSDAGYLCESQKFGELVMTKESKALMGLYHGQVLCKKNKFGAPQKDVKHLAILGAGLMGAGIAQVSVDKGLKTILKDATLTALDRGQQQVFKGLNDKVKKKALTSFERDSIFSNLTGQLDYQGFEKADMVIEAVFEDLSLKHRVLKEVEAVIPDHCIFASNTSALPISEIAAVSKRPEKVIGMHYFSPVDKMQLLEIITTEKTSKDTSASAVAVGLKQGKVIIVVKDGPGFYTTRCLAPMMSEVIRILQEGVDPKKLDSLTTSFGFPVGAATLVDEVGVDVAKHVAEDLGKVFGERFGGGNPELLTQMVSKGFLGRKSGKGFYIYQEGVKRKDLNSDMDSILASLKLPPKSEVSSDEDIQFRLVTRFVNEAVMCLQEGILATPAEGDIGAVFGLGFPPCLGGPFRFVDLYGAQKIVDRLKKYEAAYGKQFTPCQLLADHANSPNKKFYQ
Chain of Trifunctional enzyme subunit alpha, mitochondrial (HADHA) (P55084 34-474 partner): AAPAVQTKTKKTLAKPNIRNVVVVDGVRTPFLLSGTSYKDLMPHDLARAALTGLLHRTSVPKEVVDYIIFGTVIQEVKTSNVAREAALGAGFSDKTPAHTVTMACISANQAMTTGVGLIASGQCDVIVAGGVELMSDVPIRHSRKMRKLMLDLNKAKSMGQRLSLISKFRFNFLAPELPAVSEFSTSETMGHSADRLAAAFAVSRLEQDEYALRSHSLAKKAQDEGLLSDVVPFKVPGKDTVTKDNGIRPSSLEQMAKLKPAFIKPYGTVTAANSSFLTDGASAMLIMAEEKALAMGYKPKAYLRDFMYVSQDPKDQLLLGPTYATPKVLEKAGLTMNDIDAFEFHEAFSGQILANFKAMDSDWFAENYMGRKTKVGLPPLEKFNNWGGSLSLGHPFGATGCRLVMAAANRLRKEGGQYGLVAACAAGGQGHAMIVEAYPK
Chain of L-lactate dehydrogenase B chain (LDHB) (P07195 whole entry): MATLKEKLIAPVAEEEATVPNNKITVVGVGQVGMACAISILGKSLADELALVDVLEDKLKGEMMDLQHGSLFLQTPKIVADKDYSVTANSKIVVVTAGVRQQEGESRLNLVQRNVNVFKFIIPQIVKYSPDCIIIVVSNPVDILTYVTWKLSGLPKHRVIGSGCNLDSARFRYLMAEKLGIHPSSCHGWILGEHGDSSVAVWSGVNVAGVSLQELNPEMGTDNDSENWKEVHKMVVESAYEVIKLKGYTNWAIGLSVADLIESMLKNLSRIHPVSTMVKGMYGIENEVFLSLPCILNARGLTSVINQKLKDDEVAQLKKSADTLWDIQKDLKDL

Abundance Ratio: (11) / (11 with PU-H71) ([1]; sheet Exp2, CS): 0.812
Abundance Ratio: (11) / (DMSO) ([1]; sheet Exp2, CS): 1.581
Abundances (Grouped): 11 ([1]; sheet Exp2, CS): 26.4
Abundances (Grouped): 11 with PU-H71 ([1]; sheet Exp2, CS, with PU-H71): 32.5
Abundance Ratio: (11) / (DMSO) [1, 4]: 1.555
Abundance Ratio: (11) / (11 with PU-H71) [1, 5]: 0.796
Abundance Ratio: (11) / (11 with PU-H71) ([2]; Exp3, HADHA): 0.887
Abundance Ratio: (11) / (DMSO) ([2]; Exp3, HADHA): 5.561
Abundances (Grouped): 11 ([2]; Exp3, HADHA): 1575.4
Abundances (Grouped): 11 with PU-H71 ([2]; Exp3, HADHA): 1776.8
Abundance Ratio: (11) / (DMSO) [2, 6]: 7.409
Abundance Ratio: (11) / (11 with PU-H71) [2, 7]: 0.838
Abundance Ratio: (11) / (11 with PU-H71) ([2]; sheet Exp2, HADHA): 0.82
Abundance Ratio: (11) / (DMSO) ([2]; sheet Exp2, HADHA): 5.216
Abundances (Grouped): 11 ([2]; sheet Exp2, HADHA): 1189.7
Abundances (Grouped): 11 with PU-H71 ([2]; sheet Exp2, HADHA): 1451.4
Abundance Ratio: (11) / (DMSO) [2, 4]: 7.058
Abundance Ratio: (11) / (11 with PU-H71) [2, 5]: 0.838
Abundance Ratio: (11) / (DMSO) [3, 6]: 3.283
Abundance Ratio: (11) / (11 with PU-H71) [3, 7]: 0.769
Abundance Ratio: (11) / (11 with PU-H71) ([3]; sheet Exp2, LDHB): 0.731
Abundance Ratio: (11) / (DMSO) ([3]; sheet Exp2, LDHB): 3.172
Abundances (Grouped): 11 ([3]; sheet Exp2, LDHB): 66.3
Abundances (Grouped): 11 with PU-H71 ([3]; sheet Exp2, LDHB, with PU-H71): 90.7
Abundance Ratio: (11) / (DMSO) [3, 4]: 3.227
Abundance Ratio: (11) / (11 with PU-H71) [3, 5]: 0.75
Structure (SMILES): CC(=O)Oc1ccc2c(c1)Oc1cc(OC(C)=O)ccc1C21OC(=O)c2cc(C(=O)NCCOCCOCCNC(=O)CCCC(=O)N(CC#N)S(=O)(=O)c3ccc(C(=O)NCCCn4c(Sc5cc6c(cc5I)OCO6)nc5c(N)ncnc54)cc3)ccc21 [compound 11]
